Results taken from patent US20110118226A1 (priority 2008, published 2011).

Assays:
[1] = Stability of danazol in analysis medium and receptor phase (3% cetrimide solution); format: physicochemical; conditions: analysis medium (mobile phase) and receptor phase (3% cetrimide solution)
[2] = cited from earlier work

Time for which danazol was stable [1]: 30 h
SMILES: C#C[C@]1(O)CC[C@H]2[C@@H]3CCC4=Cc5oncc5C[C@]4(C)[C@H]3CC[C@@]21C [Danazol, (17α)-Pregna-2,4-dien-20-yno[2,3-d]isoxazol-17β-ol]
Bioavailability of oral danazol [2]: 11%
